# Results as given in US6962909B2, “Treatment of neovascularization disorders with squalimine” (Genaera Corporation, priority 1995, dated 2005).
# Columns and labels:
# [1] = tested on: Stage 59-60 Xenopus tadpoles; assay: Xenopus tadpole assay; format: in vivo, Xenopus laevis; settings: 10 μg/ml in water
# Source text: A newly developed assay employing tadpoles, preferably Xenopus laevis Stages 59-60, were employed to study the effect of a compound by monitoring capillary occlusion in the tadpole's tail. […] The compounds of the invention affect the shape, viability and integrity of the embryonic tissues while not affecting the adult tissues, providing a powerful, highly specific screen. For example, substances that destroy all of the animal's epithelium, both adult and embryonic, could be regarded as toxic.
# In this assay, tadpoles are introduced into Petri dishes containing a solution of the test compound in distilled water, preferably about 100 ml. The preferred concentration of the test compound is from about 1 μg/ml to about 10 μg/ml. The volume of liquid is sufficient for the animal to swim freely and drink from the solution. Thus, the effect observed results from oral absorption and subsequent systemic distribution of the agent. If the volume of liquid is not sufficient to permit oral intake, the effects that are observed would result from absorption through the surface epithelium. Thus, this simple assay can identify if an compound has characteristics of oral availability.
# After an amount of time, typically about 60 minutes, the occlusion of blood flow through capillaries in the tadpole's tail are observed under an inverted microscope at a magnification of roughly 100×.
# The tadpole assay described above provides an advantageous way to determine the pharmacological targets of each steroid when introduced into a mammal, and to determine pharmacological categories into which synthetic compounds belong. In the assay, each of the steroids was dissolved in 100 ml of distilled water at a concentration of 10 μg/ml. Stage 59-60 Xenopus tadpoles were introduced and evaluated by light microscopy and gross observation 1 hour later.
# E. coli = assay: Antibiotic activity, MIC; format: cell-based; settings: Escherichia coli
# [2] = tested on: human microvascular cells; assay: Endothelial cord formation assay; format: cell-based; on Effect on endothelial cord formation: key: + = Inhibition of angiogenesis; − = No inhibition of angiogenesis; T = Toxic; *= cell rounding @ 10 µg/ml
# Source text: Endothelial cells have the capacity in vitro to form tubular aggregates resembling capillaries in various early stages of formation. This conversion occurs under relatively specific conditions, in which essential growth factors along with an effective substratum are provided. It has been shown that both the interaction of growth factors with the endothelial cell and its attachment to a substratum activate the NHE. The activation of this exchanger is believed to be required for subsequent morphologic transformation of the endothelial cell into a multicellular tubular structure.
# To assess the effect of compounds on the cord-like structures formed by human microvascular cells when plated in the presence of VGEF (Vascular Endothelial Growth Factor) and basic fibroblast growth factor on a collagen matrix, a standard cord formation assay was used.
# [3] = tested on: vitelline capillaries of 3- to 5-day chick embryo; assay: Chick embryo vitelline capillary regression assay; format: in vivo; set-up: key to Vascular reactivity (capillary regression): + = Vascular reactivity; 0 = No vascular reactivity; +/− = Equivocal reactivity; settings: 60 minutes
# Method: Using the chick embryo vitelline capillaries assay, compounds were tested for their ability to induce capillary regression. Each compound was applied in 0.1 ml of 15% Ficol 400 and PBS onto the embryo, and vascular regression was assessed after 60 minutes.
# The 3-day chick embryo consists of an embryonic disc from which numerous vessels emerge and return, forming a “figure 8”-shaped structure—the embryo in the center with vascular loops extending outward over both poles. […] Following a lag period of around 15 minutes, the constriction of continuity between capillary and secondary vessels, generally on the “venous” side, was observed. Continued pulsatile blood flow progressed, resulting in a “swelling” of the blind tube, followed by a pinching off of the remaining connection and formation of an enclosed vascular sac resembling a “blood island.” This process progressed until only the largest vessels remained intact.
# S. aureus = assay: Antibiotic activity, MIC; format: cell-based; settings: Staphylococcus aureus
smiles,measurement,setting,value
COC(=O)CCC(C)[C@H]1CCC2C3C[C@@H](O)[C@H]4C[C@@H](NCCCNCCCCNCCCN)CC[C@]4(C)C3CC[C@@]21C (stereo partly drawn) [Compound 466],Pharmacological category in tadpole assay (similarity to a reference steroid),[1],pharmacologic activity similar to that seen for FX 3
COC(=O)CCC(C)[C@H]1CCC2C3C(CC[C@@]21C)[C@@]1(C)CC[C@H](NCCCNCCCCNCCCN)C[C@H]1C[C@H]3O (stereo partly drawn),MIC,E. coli,64 µg/mL
CC(CCC(=O)C(C)(C)OS(=O)(=O)O)[C@H]1CCC2C3C(CC[C@@]21C)[C@@]1(C)CC[C@H](NCCCNCCCCN)C[C@@H]1C[C@H]3O (stereo partly drawn) [FX1A],Pharmacological response observed in tadpole,[1]; about 1 hour,fecal elimination is dramatically increased
CC(CCC(=O)O)[C@H]1CCC2C3C[C@@H](O)[C@H]4C[C@@H](NCCCNCCCCNCCCN)CC[C@]4(C)C3CC[C@@]21C (stereo partly drawn) [Compound 467],Effect on endothelial cord formation,[2]; 1.0 μg/ml,−
same,Effect on endothelial cord formation,[2]; 10.0 μg/ml,−
COC(O)CCC(C)[C@H]1CCC2C3C(CC[C@@]21C)[C@@]1(C)CC[C@H](NCCCNCCCCNCCCN)C[C@H]1C[C@H]3O (stereo partly drawn),"Cord Formation, Minimum Effective Concentration",[2],10 µg/mL
COC(=O)CCC(C)[C@H]1CCC2C3C(CC[C@@]21C)[C@@]1(C)CC[C@H](NCCCNCCCCNCCCN)C[C@@H]1C[C@H]3O (stereo partly drawn) [Compound 396],Vascular reactivity (capillary regression),[3]; 0.001 μg applied,0
same,Vascular reactivity (capillary regression),[3]; 0.01 μg applied,0
same,Vascular reactivity (capillary regression),[3]; 0.1 μg applied,0
same,Vascular reactivity (capillary regression),[3]; 1 μg applied,+
CC(CCC(=O)O)[C@H]1CCC2C3CC[C@@H]4C[C@H](NCCCNCCCCNCCCN)CC[C@]4(C)C3C[C@H](O)[C@@]21C (stereo partly drawn) [Compound 449],Effect on endothelial cord formation,[2]; 1.0 μg/ml,−
COC(=O)CCC(C)[C@H]1CCC2C3C(CC[C@@]21C)[C@@]1(C)CC[C@H](NCCCNCCCCNCCCN)C[C@H]1C[C@H]3O (stereo partly drawn) [Compound 411],Effect on endothelial cord formation,[2]; 0.1 μg/ml,−
same,Effect on endothelial cord formation,[2]; 1.0 μg/ml,−
same,Effect on endothelial cord formation,[2]; 10.0 μg/ml,+
same,Vascular reactivity (capillary regression),[3]; 0.001 μg applied,0
same,Vascular reactivity (capillary regression),[3]; 0.01 μg applied,0
same,Vascular reactivity (capillary regression),[3]; 0.1 μg applied,0
same,Vascular reactivity (capillary regression),[3]; 1 μg applied,+/−
COC(=O)CCC(C)[C@H]1CCC2C3C[C@@H](O)[C@H]4C[C@H](NCCCNCCCCNCCCN)CC[C@]4(C)C3CC[C@@]21C (stereo partly drawn) [Compound 465],Pharmacological category in tadpole assay (similarity to a reference steroid),[1],pharmacologic activity similar to that seen for FX 3
COC(=O)CCC(C)[C@H]1CCC2C3C(CC[C@@]21C)[C@@]1(C)CC[C@@H](NCCN)C[C@H]1C[C@H]3O (stereo partly drawn) [drawing 118],"Cord Formation, Minimum Effective Concentration",[2],10 µg/mL
CC(CCC(=O)O)[C@H]1CCC2C3C(CC[C@@]21C)[C@@]1(C)CC[C@@H](NCCCNCCCCNCCCN)C[C@H]1C[C@H]3O (stereo partly drawn) [drawing 72],MIC,S. aureus,8 µg/mL
"CO[C@@H]1[C@H](OC(=O)/C=C/C=C/C=C/C=C/C(=O)O)CC[C@]2(CO2)[C@H]1[C@@]1(C)O[C@@H]1CC=C(C)C [Fumagillin, reference compound]",Concentration that inhibits cord formation,[2],10 µg/mL
same,Effect on endothelial cord formation,[2]; 0.1 μg/ml,−
same,Effect on endothelial cord formation,[2]; 10.0 μg/ml,+
CC(CCC(=O)O)[C@H]1CCC2C3C(CC[C@@]21C)[C@@]1(C)CC[C@H](NCCN)C[C@H]1C[C@H]3O (stereo partly drawn) [Compound 415],Effect on endothelial cord formation,[2]; 0.1 μg/ml,−
same,Effect on endothelial cord formation,[2]; 1.0 μg/ml,−
same,Effect on endothelial cord formation,[2]; 10.0 μg/ml,+/T
same,Vascular reactivity (capillary regression),[3]; 0.001 μg applied,0
same,Vascular reactivity (capillary regression),[3]; 0.01 μg applied,+
same,Vascular reactivity (capillary regression),[3]; 0.1 μg applied,+
same,Vascular reactivity (capillary regression),[3]; 1 μg applied,+
CC(CCC(=O)O)[C@H]1CCC2C3C(CC[C@@]21C)[C@@]1(C)CC[C@H](NCCCNCCCCNCCCN)C[C@H]1C[C@H]3O (stereo partly drawn) [drawing 154],"Cord Formation, Minimum Effective Concentration",[2],>10 µg/mL
COC(=O)CCC(C)[C@H]1CCC2C3C[C@@H](O)[C@H]4C[C@H](NCCN)CC[C@]4(C)C3CC[C@@]21C (stereo partly drawn),MIC,E. coli,32 to 64 µg/mL
CC(CCC(=O)O)[C@H]1CCC2C3C(CC[C@@]21C)[C@@]1(C)CC[C@H](NCCCNCCCCNCCCN)C[C@@H]1C[C@H]3O (stereo partly drawn),MIC,S. aureus,16 µg/mL
same,MIC,E. coli,32 to 64 µg/mL
COC(=O)CCC(C)[C@H]1CCC2C3CC[C@H]4C[C@H](NCCCNCCCCNCCCN)CC[C@]4(C)C3CC[C@@]21C (stereo partly drawn) [Compound 458],Pharmacological category in tadpole assay (similarity to a reference steroid),[1],pharmacologic activity similar to that seen for FX 3
CC(CCC(=O)O)[C@H]1CCC2C3C[C@@H](O)[C@H]4C[C@@H](NCCN)CC[C@]4(C)C3CC[C@@]21C (stereo partly drawn) [Compound 433],Pharmacological category in tadpole assay (similarity to a reference steroid),[1],functionally similar to compound 1437
COC(=O)CCC(C)[C@H]1CCC2C3C(CC[C@@]21C)[C@@]1(C)CC[C@@H](NCCCNCCCCN)C[C@H]1C[C@H]3O (stereo partly drawn),MIC,S. aureus,4 µg/mL
same,MIC,E. coli,32 to 64 µg/mL
COC(=O)CCC(C)[C@H]1CCC2C3C(CC[C@@]21C)[C@@]1(C)CC[C@@H](NCCN)C[C@H]1C[C@H]3O (stereo partly drawn) [drawing 70],MIC,S. aureus,16 µg/mL
same,MIC,E. coli,16 µg/mL
CC(CCC(=O)O)[C@H]1CCC2C3C(CC[C@@]21C)[C@@]1(C)CC[C@H](NCCCNCCCCN)C[C@@H]1C[C@H]3O (stereo partly drawn) [Compound 381],Vascular reactivity (capillary regression),[3]; 1 μg applied,0
CC(C)CCCC(C)[C@H]1CCC2C3C(CC[C@@]21C)[C@@]1(C)CC[C@H](N)C[C@@H]1C[C@H]3O (stereo partly drawn) [Compound 1364],Vascular reactivity (capillary regression),[3]; 0.001 μg applied,0
same,Vascular reactivity (capillary regression),[3]; 0.01 μg applied,0
same,Vascular reactivity (capillary regression),[3]; 0.1 μg applied,0
same,Vascular reactivity (capillary regression),[3]; 1 μg applied,+
same,Vascular reactivity (capillary regression),[3]; 10 μg applied,+
CC(CCC(=O)O)[C@H]1CCC2C3C(CC[C@@]21C)[C@@]1(C)CC[C@H](NCCCNCCCCNCCCN)C[C@H]1C[C@H]3O (stereo partly drawn) [drawing 73],MIC,S. aureus,8 µg/mL
same,MIC,E. coli,256 µg/mL
COC(=O)CCC(C)[C@H]1CCC2C3CC[C@@H]4C[C@H](NCCN)CC[C@]4(C)C3C[C@H](O)[C@@]21C (stereo partly drawn) [Compound 416],Pharmacological category in tadpole assay (similarity to a reference steroid),[1],functionally similar to compound 1437
CC(C)CCCC(C)[C@H]1CCC2C3C(CC[C@@]21C)[C@@]1(C)CC[C@@H](N)C[C@@H]1C[C@H]3O (stereo partly drawn) [Compound 1363],Pharmacological category in tadpole assay (similarity to a reference steroid),[1],pharmacologic activity similar to Fraction 1
CC(C)CCCC(C)[C@H]1CCC2C3CC[C@H]4C[C@@H](NCCCNCCCCN)CC[C@]4(C)C3CC[C@@]21C (stereo partly drawn) [Compound 303],Vascular reactivity (capillary regression),[3]; 1 μg applied,0
CC(CCC(=O)O)[C@H]1CCC2C3C(CC[C@@]21C)[C@@]1(C)CC[C@H](NCCN)C[C@H]1C[C@H]3O (stereo partly drawn),"Cord Formation, Minimum Effective Concentration",[2],>10 µg/mL
CC(CCC(=O)O)[C@H]1CCC2C3C(CC[C@@]21C)[C@@]1(C)CC[C@@H](NCCCNCCCCNCCCN)C[C@H]1C[C@H]3O (stereo partly drawn) [drawing 152],"Cord Formation, Minimum Effective Concentration",[2],>10 µg/mL
CC(CCC(=O)O)[C@H]1CCC2C3C(CC[C@@]21C)[C@@]1(C)CC[C@@H](NCCCNCCCCN)C[C@@H]1C[C@H]3O (stereo partly drawn) [Compound 382],Vascular reactivity (capillary regression),[3]; 0.001 μg applied,0
same,Vascular reactivity (capillary regression),[3]; 0.01 μg applied,0
same,Vascular reactivity (capillary regression),[3]; 0.1 μg applied,0
same,Vascular reactivity (capillary regression),[3]; 1 μg applied,+
same,Vascular reactivity (capillary regression),[3]; 10 μg applied,+
COC(=O)CCC(C)[C@H]1CCC2C3C[C@@H](O)[C@H]4C[C@H](NCCN)CC[C@]4(C)C3CC[C@@]21C (stereo partly drawn) [Compound 431],Pharmacological category in tadpole assay (similarity to a reference steroid),[1],functionally similar to compound 1437
COC(=O)CCC(C)[C@H]1CCC2C3C(CC[C@@]21C)[C@@]1(C)CC[C@H](NCCCNCCCCN)C[C@H]1C[C@H]3O (stereo partly drawn),MIC,S. aureus,64 µg/mL
same,MIC,E. coli,256 µg/mL
CC(C)CCCC(C)[C@H]1CCC2C3C(CC[C@@]21C)[C@@]1(C)CC[C@H](N)C[C@@H]1C[C@H]3O (stereo partly drawn),MIC,S. aureus,2 µg/mL
same,MIC,E. coli,> 256 µg/mL
CC(CCC(=O)O)[C@H]1CCC2C3CC[C@H]4C[C@H](NCCCNCCCCN)CC[C@]4(C)C3CC[C@@]21C (stereo partly drawn) [Compound 318],Vascular reactivity (capillary regression),[3]; 1 μg applied,0
CC(C)CCCC(C)[C@H]1CCC2C3C(CC[C@@]21C)[C@@]1(C)CC[C@@H](NCCCNCCCCN)C[C@@H]1C[C@H]3O (stereo partly drawn) [Compound 370],Pharmacological category in tadpole assay (similarity to a reference steroid),[1],pharmacologic activity similar to that seen for FX 3
